Experiment [1] concerns the target GCP-KRASG12D (Homo sapiens, UniProt P01116, G12D). As to the kind of experiment: KD(HSQC) NMR. The experiment is classed as binding. Here is the method: (§1) 80 difference spectrum. Mixtures of four fragments (each at 250 µM) were incubated in 25
(§2) 82 a mixture of GCP-KRASG12D and GDP-KRASG12V (each 4 µM). Binders were identified
(§3) 83 by comparing pre-recorded reference spectra with the STD difference spectrum.
(§4) 84 Deconvolution and confirmation of primary FBS hits obtained from STD-NMR and
(§5) 85 MST was performed using 2D 1H/15N TROSY NMR experiments(2) collected on a
(§6) 86 Bruker Avance III 600 MHz spectrometer equipped with a 5 mm z-gradient TCI cryo-
(§7) 87 probe. Samples were prepared directly before data acquisition using a Tecan Freedom
(§8) 88 Evo pipetting system and delivered by a Bruker Sample Rail to the magnet. Each sample
(§9) 89 contained either 50 µM 15N labeled GDP-KRASG12D or GCP-KRASG12D in 25 mM Tris-
(§10) 90 d11, 100 mM NaCl, 2 mM MgCl2, 0.5 mM TCEP pH 7.4 and 8% (v/v) D2O. Proteins […]
(§11) 92 d6DMSO. Spectra were recorded with 32 transients and 64 data points in the indirect […]
(§12) 100 support compound optimization. 1H/15N SoFast HMQC experiments(3) were recorded in […]
(§13) 102 recorded on a Avance III 700MHz spectrometer equipped with a cryogenically cooled […]
(§14) 107 DMSO. KDs were calculated from the differences in chemical shift induced by t he small […]
(§15) 109 dimension were calculated according to the following equation: […]
(§16) 120 (MicroCalTM, LLC Northampton, MA). Protein solutions were measured in 20 mM […]
(§17) 125 were analyzed with the MicroCal PEAQ-ITC analysis software package. […]

Experiment [2] has as its target GDP-KRASG12D (Homo sapiens, UniProt P01116, G12D). As to the kind of experiment: KD(HSQC) NMR. It counts as binding. As to the method:
as §1, §2, §3, §4, §5, §6, §7, §8, §9, §10, §11, §12, §13, §14, §15, §16, §17

Here are results for one compound from publication PMC6689897, “Drugging an undruggable pocket on KRAS” (Proceedings of the National Academy of Sciences of the …, 2019).

GDP-KRASG12D, sequence (P01116 1-169 isoform P01116-2 G12D): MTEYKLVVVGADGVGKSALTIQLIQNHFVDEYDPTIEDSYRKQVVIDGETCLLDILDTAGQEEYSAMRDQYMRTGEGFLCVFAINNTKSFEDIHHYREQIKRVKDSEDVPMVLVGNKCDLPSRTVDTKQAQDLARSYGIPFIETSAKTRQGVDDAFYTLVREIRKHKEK
GCP-KRASG12D, sequence (P01116 1-169 isoform P01116-2 G12D): as above

In the case of `CN(C)Cc1[nH]c2ccccc2c1[C@H]1NC(=O)c2ccc(O)cc21` [Compound 18], the Kd is 17 µM in experiment [1] and 16 µM in experiment [2].
